Test results published in patent publication US11564986B2, “Approach for treatment of cancer via immunomodulation by using talabostat” (ONKOSXCEL THERAPEUTICS, LLC, priority 2015, dated 2023).

Key:
[1] = system: pancreatic and lung cancer; conditions: Talabostat alone or with cytokine or chemotherapeutic agents; cited from earlier work
[2] = system: CT26 tumor cells; experiment: Immunophenotyping of CT26 tumor samples by quantitative PCR (NK cells, perforin, granzyme B, Tregs); assay type: in vivo; conditions: CT26, day 7 after first dosing; Talabostat 20 μg/mouse qd, PD-1 antagonist 5 mg/kg
Experimental: Mice (Balb/c) corresponding to 20±2 g weight, received food and water ad libitum. The study protocol, the procedures involving the care and use of animals were reviewed and approved by the Institutional Animal Care and Use Committee (IACUC) to ensure compliance with the regulations of the Association for Assessment and Accreditation of Laboratory Animal Care (AAALAC).
Tumor Model The CT26 tumor cells were cultured in RPMI1640 medium supplemented with 10% heat inactivated fetal bovine serum, 100 U/ml penicillin and 100 μg/ml streptomycin, at 37° C. in an incubator of 5% CO2. The tumor cells were routinely subcultured three times per week. The cells growing in an exponential growth phase were harvested and counted for tumor inoculation. […]
The immuno-modulatory effect of the single dose (20 μg/mouse qd) administration of Talabostat alone and in combination with PD-1 antagonist (5 mg/kg), at various dose schedules was analysed by collecting the blood and the tumor samples 7 days after the first dosing the mice.
Tumor RNA samples were extracted from the frozen tumor tissues using the Trizol reagent. […] Quantitative PCR were conducted using a master mix from Invitrogen (Cat. #4309155) on an ABI 7900HT Fast Real-Time PCR System. The results were analyzed using a Delta Delta Ct method. […]

[3] = in vivo; cited from earlier work
[4] = system: MC38 mouse colon cancer cell line; experiment: Antitumor effect in MC38 mouse model of colon adenocarcinoma (tumor volume, tolerability; Study 1 and Study 2); assay type: in vivo
From the text: Six to seven-week-old female C57BL/6 mice were used in the studies. Mice received food and water ad libitum. The study protocol, the procedures involving the care and use of animals were reviewed and approved by the Institutional Animal Care and Use Committee (IACUC) to ensure compliance with the regulations of the Association for Assessment and Accreditation of Laboratory Animal Care (AAALAC).
MC38 mouse colon cancer cell line was provided by GenScript. The tumor cells were maintained as monolayer culture in DMEM supplemented with 10% fetal bovine serum (FBS), 1% Glutamax® and 1% Penicillin-Streptomycin at 37° C. in an atmosphere with 5% CO2. The cells were routinely subcultured every 2 days to maintain growth at exponential phase. The tumor cells growing in exponential growth phase were harvested by trypsinization, followed by centrifugation at 335×g relative centrifugal force (RCF) in a centrifuge. The supernatant was subsequently removed by aspiration. Cell pellet was resuspended in approximately 10× volume of cell culture medium and counted. The cell suspension was centrifuged again and processed as above and finally resuspended in HBSS−/− at a density of 1×10^7 cells per ml. Cell viability was determined to be 95% by trypan blue staining. Cell suspensions were implanted in the subcutaneous space of the flank of mice of female C57BL/6 mice (2.0×10^6 MC-38 cells in 0.2 mL Hanks Balanced Salt Solution). Mice were inoculated subcutaneously in the right lower flank (near the dorsal thigh region) with a single volume of 0.1 ml cell suspension containing about 1×10^6 cells.
Tumor size was measured twice per week in 2 dimensions using a caliper (recorded up to one decimal point). Tumor volume, expressed in mm^3, was calculated using the following formula, in which “a” and “b” were the long and the short diameters of a tumor, respectively. V (mm^3)=(a×b^2)/2
Animals were weighed and randomized into treatment groups when the mean tumor size was around 120 mm^3 on Day 0.
Data related to tumor volume, tumor weight, and body weight were presented as mean and the standard error of the mean (SEM). Statistical analyses were conducted using Student's t-test. P<0.05 was considered statistically significant. * and ** indicate P<0.05 and P<0.01, respectively.
The antitumor effect of single dose (qd) as well as twice daily (bid) administration of Talabostat alone and in combination with PD-1 antagonist at various dose schedules was evaluated in MC-38 (murine colon) tumor bearing mice. After the tumors were established, mice were sorted into various groups with a mean tumor volume of ˜200 mm^3. The test article and antibody were administered according to the dosing schedules described in Tables 5 and 6.

[5] = system: melanoma; conditions: monotherapy or combination; cited from earlier work

| Compound | Primary and secondary endpoints in clinical trials [1] | NK cell activation, perforin (Pfr1) release in tumor (relative mRNA) [2] | Most common adverse events [3] | Mean (±SEM) tumor volume ([4]; Study 1, MC38, Day 13, Talabostat 10 μg twice daily p.o.) | Mean (±SEM) tumor volume ([4]; Study 1, MC38, Day 13, Talabostat 20 μg twice daily p.o.) | Antitumor effect compared with the vehicle control group ([4]; Study 1, MC38, single treatment groups) | Mean (±SEM) tumor volume ([4]; Study 2, MC38, Day 11, Talabostat 2.5 μg BID p.o.) | Mean (±SEM) tumor volume ([4]; Study 2, MC38, Day 11, Talabostat 5 μg BID p.o.) | Mean (±SEM) tumor volume ([4]; Study 2, MC38, Day 11, Talabostat 10 μg BID p.o.) | Mean (±SEM) tumor volume ([4]; Study 2, MC38, Day 11, Talabostat 20 μg QD p.o.) | Response rate in melanoma patients [5] [%] |
| --- | --- | --- | --- | --- | --- | --- | --- | --- | --- | --- | --- |
| CC(C)[C@H](N)C(=O)N1CCC[C@H]1B(O)O [Talabostat, [(2R)-I-I [(2S)-2-amino-3-methyl-1-oxobutyl]-2-pyrrolidinyl] boronic acid] | unable to meet primary as well as secondary endpoints | activation in terms of release of perforin | edema/peripheral swelling, hypotension, hypovolemia, and dizziness | 1.66 (±0.48) cc | 1.30 (±0.42) cc | significant better effect | 3.2 (±0.48) cc | 2.9 (±0.42) cc | 2.9 (±0.18) cc | 2.0 (±0.43) cc |  |
| Nivolumab: anti-PD-1 antibody, CAS Registry Number 946414-94-4 |  |  |  |  |  |  |  |  |  |  | 32 |
| Ipilimumab: CTLA-4 antagonist; human monoclonal antibody, CAS No. 477202-00-9 |  |  |  |  |  |  |  |  |  |  | 11 |
